Source: patent US9834514B2, “Antibiotic sensitivity-restoring and photosensitive agents” (New Mexico Tech Research Foundation, priority 2015, dated 2017)
Converted amounts (≈) assume the structure as drawn. Read-outs that look alike come from different tables or passages of the source.

How the values were obtained:
[1] = molecular target: T1, NorA efflux pumps in MRSA (Staphylococcus aureus, UniProt P0A0J7); assay: Fluorescent binding assay of compound 1 with MRSA and S. aureus; conditions: 1 μM and 10 μM; MRSA compared to S. aureus; FIG. 1
T1 construct: endogenous in cells
T1 sequence (P0A0J7 whole entry): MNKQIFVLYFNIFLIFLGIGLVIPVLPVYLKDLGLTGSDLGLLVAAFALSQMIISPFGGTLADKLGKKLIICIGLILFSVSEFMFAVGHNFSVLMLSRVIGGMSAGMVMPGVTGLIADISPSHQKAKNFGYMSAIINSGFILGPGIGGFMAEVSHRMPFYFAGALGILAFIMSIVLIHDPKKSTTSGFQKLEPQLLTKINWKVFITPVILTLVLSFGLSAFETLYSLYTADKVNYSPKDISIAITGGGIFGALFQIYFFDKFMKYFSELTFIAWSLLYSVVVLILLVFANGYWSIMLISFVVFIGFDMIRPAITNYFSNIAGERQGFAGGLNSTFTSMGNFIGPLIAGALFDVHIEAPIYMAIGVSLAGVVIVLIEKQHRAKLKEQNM
Protocol: The error bars represent data from three independent measurements.
S. aureus and MRSA cells (about 10^8 CFU/mL) were treated with two doses of compound 1 (1 μM and 10 μM), and the cells were incubated at 37° C. for 15 minutes on a rotary shaker set at 150 rpm. After the incubation, the cells were transferred to a 96-well fluorescent plate reader and read every minute for 30 minutes at excitation wavelengths of 334 nm, 380 nm, and 407 nm, and an emission wavelength of 508 nm. The controls were: 1×PBS, compound 1 (1 μM and 10 μM) in 1×PBS, S. aureus in 1×PBS, and MRSA in 1×PBS.

[2] = test system: S. pyogenes (ATCC No. 8133); assay: MIC against S. pyogenes; assay type: cell-based; conditions: Streptococcus pyogenes, ATCC8133; compound alone
Text: The error bars in FIG. 12 represent the variations between three replicate determinations.

[3] = test system: S. mutans (Ward's 85W 2357); assay: MIC against S. mutans; assay type: cell-based; conditions: Streptococcus mutans; compound alone
Text: The error bars in FIG. 13 represent the variations between three replicate determinations.

[4] = test system: A549 (human lung carcinoma); assay: Light-activated killing of cell lines (IC50 with/without light); assay type: cell-based
Protocol: (§1) TABLE 15 depicts the IC50 of compounds in the presence or absence of light for human cell lines. The cell lines used were HeLa (human cervical adenocarcinoma), U-87 MG (human brain gliobastoma), MES-SA (human uterine sarcoma), MES-SA/D×5 (human uterine sarcoma grown in presence of doxorubicin), NCI-H441 (human lung papillary adenocarcinoma), A549 (human lung carcinoma), WI-38 (human embryonic lung normal), MCF7 (human breast adenocarcinoma), SW1088 (human brain astrocytoma), B16F10 (mouse skin melanoma), NIH-3T3 (mouse fibroblast), and Jurkat (human lymphoblastoma). “1-Sol” in TABLE 15 was generated by dissolving compound 1 and potassium hydroxide at a 1:1 ratio in a DMSO/water solution. The cells were irradiated with continuous white light using a LumaCare™ light source for 2 minutes at a distance of 6.5 cm from the cells.

[5] = test system: B16F10 (mouse skin melanoma); assay: as above; assay type: cell-based
Protocol: as §1

[6] = test system: Jurkat (human lymphoblastoma); assay: as above; assay type: cell-based
Protocol: as §1

[7] = test system: MCF7 (human breast adenocarcinoma); assay: as above; assay type: cell-based
Protocol: as §1

[8] = test system: MES-SA/Dx5 (human uterine sarcoma grown in presence of doxorubicin); assay: as above; assay type: cell-based
Protocol: as §1

[9] = test system: NCI-H441 (human lung papillary adenocarcinoma); assay: as above; assay type: cell-based
Protocol: as §1

[10] = test system: SW1088 (human brain astrocytoma); assay: as above; assay type: cell-based
Protocol: as §1

[11] = test system: U-87 MG (human brain gliobastoma); assay: as above; assay type: cell-based
Protocol: as §1

[12] = test system: WI-38 (human embryonic lung normal); assay: as above; assay type: cell-based
Protocol: as §1

[13] = test system: E. coli; assay: MIC against E. coli; assay type: cell-based; conditions: Escherichia coli
Text: TABLE 18 details the obtained MIC values for cells treated with compound 1, light, PMB, and Polymyxin E (PME) against E. coli.

[14] = test system: MRSA (ATCC No. BAA-44); assay: Potentiation of antibiotic activity with 10 μM compound 1 (CFU/mL); assay type: cell-based, S. aureus
Protocol: The MICs for the antibiotics in the absence of compound 1 were calculated by adjusting the cells to 5×10^5 CFU/mL with McFarland Turbidity Standard (0.5) followed by the addition of an antibiotic. The cells were then incubated at 37° C. for 18 hours on a rotary shaking incubator at 100 rpm. Finally, MTT was added to the cells to assess viability.
To assess the potentiation of antibiotic activity, the cells were adjusted to 5×10^5 CFU/mL with McFarland Turbidity Standard (0.5). Compound 1 was then added at 10 μM, and the cells were incubated at 37° C. for 45 minutes. The desired antibiotic was then added at three sub-inhibitory concentrations, and the cells were incubated at 37° C. for 18 hours on a rotary shaking incubator at 100 rpm. The samples were then diluted ten-fold, drip streaked onto a TSA plate, and incubated for 18 hours at 37° C. The resulting cell colonies were counted, and the CFU/mL values were calculated.

[15] = test system: VRE (ATCC 51299); assay: Synergy with antibiotics against VRE; assay type: cell-based, Enterococcus faecalis
Protocol: For these experiments, overnight cultures of VRE were diluted to about 5×10^5 CFU/mL in TSB. Then, 1 mL of the diluted broth suspension was added to a borosilicate glass culture tube. After appropriate volumes of the compounds were added to the broth suspensions, the samples were mixed using a vortex mixer, and an appropriate volume of an antibiotic was added to the samples. The samples were mixed using a vortex mixer and incubated for 18 hours at 37° C. on a rotary shaking incubator. After 18 hours, the test cultures were diluted ten-fold, and 10 μL of each dilution was drip-streaked onto a TSA plate and incubated for 18 hours at 37° C. Colony counts were then performed and the CFU/mL values were calculated.
TABLE 24 details the MICs of common antibiotics against VRE. In a 12×75 mm borosilicate glass culture tube, 1 mL of cell suspension was added. Then, compound 7 was added to the cells, and the samples were mixed using a vortex mixer. […] The samples were incubated overnight at 37° C. on a rotary shaking incubator at 100 rpm. Inhibition observed visually compared to each individual treatment was considered synergistic.

[16] = 2 min, white light 2 minutes, read-out: Compound + light IC50
[17] = no light, read-out: Compound IC50

Compound: Clc1ccc(/C=C/c2[nH]c3ccccc3c2/C=C/c2ccc(Cl)cc2)cc1 [Compound 1]
- binding of compound 1 by cells (fluorescence) [1]: MRSA was able to bind more of compound 1
- MIC [2]: 100 µM (≈ 39 µg/mL)
- MIC [3]: 50 to 100 µM (≈ 19.5 to 39 µg/mL)
- IC50 [4, 16]: 0.84 ± 0.32 µM
- IC50 [4, 17]: 17.4 ± 1.52 µM
- IC50 ([5]; B16-F10, 2 min, white light 2 minutes, read-out: Compound + light IC50): 0.41 ± 0.22 µM
- IC50 ([5]; B16-F10, no light, read-out: Compound IC50): 18.7 ± 0.99 µM
- IC50 [6, 16]: 25 nM
- IC50 [6, 17]: > 10000 nM
- IC50 [7, 16]: 0.33 ± 0.04 µM
- IC50 [7, 17]: 17.8 ± 0.22 µM
- IC50 ([8]; Homo sapiens, MES-SA/Dx5, 2 min, MES-SA/Dx5 (no doxorubicin), white light 2 minutes, read-out: Compound + light IC50): 720 ± 70 nM
- IC50 ([8]; Homo sapiens, MES-SA/Dx5, 2 min, MES-SA/Dx5 + doxorubicin, white light 2 minutes, read-out: Compound + light IC50): 440 ± 100 nM
- IC50 ([8]; Homo sapiens, MES-SA/Dx5, MES-SA/Dx5 + doxorubicin, no light, read-out: Compound IC50): 38800 ± 2760 nM
- IC50 ([8]; MES-SA/Dx5 (no doxorubicin), white light 2 minutes, read-out: Compound + light IC50): 620 ± 30 nM
- IC50 [9, 16]: 0.76 ± 0.07 µM
- IC50 [9, 17]: 50.7 ± 4.37 µM
- IC50 [10, 16]: 470 ± 30 nM
- IC50 [10, 17]: > 50000 nM
- IC50 ([11]; 2 min, U-87 MG (spheroids), white light 2 minutes, read-out: Compound + light IC50): 450 nM
- IC50 [11, 16]: 560 ± 20 nM
- IC50 ([11]; U-87 MG (spheroids), no light, read-out: Compound IC50): > 40000 nM
- IC50 [11, 17]: 44600 ± 3680 nM
- IC50 [12, 16]: 0.33 ± 0.08 µM
- IC50 [12, 17]: 63.4 ± 5.48 µM
- MIC [13]: > 200 µg/mL
- potentiation of tetracycline (CFU/mL) ([14]; FIG. 18): tetracycline was more efficacious in cell killing in the presence of compound 1
- potentiation of doxycycline (CFU/mL) ([14]; FIG. 19): doxycycline was more efficacious in cell killing in the presence of compound 1
- potentiation of norfloxacin (CFU/mL) ([14]; FIG. 20): norfloxacin was more efficacious in cell killing in the presence of compound 1
- potentiation of dicloxicillin (CFU/mL) ([14]; FIG. 21): dicloxicillin was more efficacious in cell killing in the presence of compound 1
- potentiation of oxacillin (CFU/mL) ([14]; FIG. 22): oxacillin was more efficacious in cell killing in the presence of compound 1
- potentiation of penicillin G (CFU/mL) ([14]; FIG. 23): penicillin G was more efficacious in cell killing in the presence of compound 1
- potentiation of tobramycin (CFU/mL) ([14]; FIG. 24): tobramycin was more efficacious in cell killing in the presence of compound 1
- potentiation of vancomycin (CFU/mL) ([14]; FIG. 25): vancomycin was more efficacious in cell killing in the presence of compound 1

Compound: Brc1ccc(/N=N/c2c[nH]c3ccccc23)cc1 [Compound 8]
- killing of VRE in conjunction with antibiotics ([15]; 7.5 μM of compound 8 with vancomycin, tetracycline, or norfloxacin, FIG. 43): more effective at killing VRE

Compound: Clc1ccc(/N=N/c2c[nH]c3ccccc23)cc1 [Compound 9]
- killing of VRE in conjunction with antibiotics ([15]; 75 μM of compound 9 with tetracycline or norfloxacin, FIG. 44): more effective at killing VRE
